Experimental data from US11319324B2, “Pyrazolo-pyrrolo-pyrimidine-dione derivatives as P2X3 inhibitors” (Bayer Aktiengesellschaft, priority 2017, dated 2022).

Experiments:
Format in all cases: cell-based
human P2X2/3 receptors = biological target: T1, human P2X2/3 receptors (Homo sapiens, UniProt P56373+Q9UBL9); test: Intracellular calcium measurement, antagonist activity at human P2X2/3 receptors (hP2X23 1321N1), Fluo8; settings: for IC50: column 4); 1321N1 cells, human P2X2/3, Fluo8, agonist ATP at EC50; read-out: 4) hP2X2/3 IC50 [nM] (1321N1); for hP2X23/hP2X3* Selectivity (1321N1): ratio of column 4) hP2X2/3 to column 3) hP2X3, 1321N1
T1 construct: expressed in transfected cells; host or cells: human astrocytoma 1321N1 (1312N1 [sic])
T1 sequence (P56373 1-397): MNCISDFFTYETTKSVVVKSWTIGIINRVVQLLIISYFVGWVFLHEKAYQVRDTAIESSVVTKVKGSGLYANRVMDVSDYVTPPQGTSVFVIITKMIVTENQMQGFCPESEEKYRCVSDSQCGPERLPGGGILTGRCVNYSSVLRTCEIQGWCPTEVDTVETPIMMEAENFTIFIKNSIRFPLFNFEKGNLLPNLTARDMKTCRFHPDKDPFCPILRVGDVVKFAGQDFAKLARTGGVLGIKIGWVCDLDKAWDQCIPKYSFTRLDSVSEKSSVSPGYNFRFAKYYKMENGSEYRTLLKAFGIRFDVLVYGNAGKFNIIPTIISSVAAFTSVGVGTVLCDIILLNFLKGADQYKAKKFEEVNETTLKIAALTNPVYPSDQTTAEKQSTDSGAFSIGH
T1 sequence (Q9UBL9 1-471): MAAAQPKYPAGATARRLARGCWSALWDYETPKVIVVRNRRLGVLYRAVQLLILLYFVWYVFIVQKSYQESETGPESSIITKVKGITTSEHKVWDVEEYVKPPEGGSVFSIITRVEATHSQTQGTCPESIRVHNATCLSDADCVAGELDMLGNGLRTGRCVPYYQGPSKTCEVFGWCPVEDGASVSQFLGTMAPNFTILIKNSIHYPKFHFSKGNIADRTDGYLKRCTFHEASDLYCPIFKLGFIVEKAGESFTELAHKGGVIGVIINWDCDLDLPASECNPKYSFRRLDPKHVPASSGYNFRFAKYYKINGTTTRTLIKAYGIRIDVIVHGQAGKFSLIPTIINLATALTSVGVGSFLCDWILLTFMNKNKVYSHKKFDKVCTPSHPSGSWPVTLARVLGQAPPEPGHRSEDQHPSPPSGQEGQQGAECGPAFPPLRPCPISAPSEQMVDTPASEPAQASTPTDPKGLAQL
Summary of the method: (§1)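 Antagonism was assessed by decrease of the Fluo8 calcium signal after ATP challenge, with ATP dosed at the EC50 of whichever receptor was tested. Stable 1321N1 astrocytoma lines expressed either human P2X3 or both P2X2 and P2X3, and were dye-loaded 60 min before a 10 min compound incubation.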

human P2X3 receptor [1] = biological target: T2, human P2X3 receptor (Homo sapiens, UniProt P56373); test: Intracellular calcium measurement, antagonist activity at human P2X3 receptors (hP2X3 1321N1), Fluo8; design: expressed in transfected cells; host or cells: human astrocytoma 1321N1 (1312N1 [sic]); settings: column 3); 1321N1 cells, human P2X3, Fluo8, agonist ATP at EC50
T2 sequence (P56373 1-397): T1 sequence (P56373 1-397)
Summary of the method: as §1

human P2X3 receptor [2] = biological target: T2, human P2X3 receptor; test: Intracellular calcium measurement to assess antagonist activity at human P2X3 receptors (hP2X3 FLIPR); design: expressed in transfected cells; host or cells: human astrocytoma 1321N1 (1312N1 [sic]); settings: head prints (1321N1); read-out: 1) hP2X3 IC50 [nM] (1321N1)
Description: 1) Intracellular Calcium Measurement to Assess Antagonist Activity at Human P2X3 Receptors (hP2X3 FLIPR)
A fluorescent imaging plate reader (FLEX/FLIPR station; Molecular Devices) was used to monitor intracellular calcium levels using the calcium-chelating dye Fluo-4 (Molecular Probes). The excitation and emission wavelengths used to monitor fluorescence were 470-495 nm and 515-575 nm, respectively. The human astrocytoma […] cells expressing purinergic receptors P2X3 (human) were plated at a density of 15,000 cells/well in collagen—coated 384-well plates approximately 20 hours before beginning the assay. […] The dye supernatant was removed and replaced with 45 μl probenecid buffer (Hank's balanced salt solution, 20 mM HEPES, 0.5 mM CaCl2, 0.5 mM MgCl2, 0.1% BSA, 5 mM probenecid, 10 mM D-glucose monohydrate, pH=7.4). The test compounds were added in a volume of 5 μl and allowed to incubate for 30 min at 37° C. The final assay DMSO concentration is 1%. […] The fluorescence was measured for an interval of 90 sec at 2 sec intervals and analyzed based on the increase in peak relative fluorescence units (RFU) compared to the basal fluorescence. Peak fluorescence was used to determine the response to agonist obtained at each concentration of test compound by the following equation: Response=100*(RFU(test compound)−RFU(control))/(RFU(DMSO)−RFU(control))
The Examples were tested in triplicates per plate and mean values were plotted in Excel XLFit to determine IC50 values at the human P2X3 and human P2X2/3 receptors, percentage of maximal inhibition and the Hill coefficients.

human P2X3 receptor [3] = biological target: T2, human P2X3 receptor; test: Intracellular calcium measurement to assess antagonist activity at human P2X3 receptors (hP2X3 CHO), photina luminescence; design: expressed in transfected cells; host or cells: Chinese hamster ovary (CHO) cells; settings: column 2), CHO cells, agonist α,β-methylene-ATP at EC50
Summary of the method: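 Antagonism read as lowered photina luminescence after agonist stimulation in recombinant hP2X3/photina CHO cells. Cells seeded one day earlier (30 °C) and reconstituted with 5 μg/ml coelenterazine in 2 mM Ca-tyrode buffer for 3 h at 37 °C before measurement.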

Structure (SMILES) | IC50 (human P2X2/3 receptors) [nM] | hP2X23/hP2X3* Selectivity (1321N1) (human P2X2/3 receptors) | IC50 (human P2X3 receptor [1]) [nM] | IC50 (human P2X3 receptor [2]) [nM] | IC50 (human P2X3 receptor [3]) [nM]
COC[C@H](C)N1Cc2c(n(CC(=O)Nc3ccc(F)cn3)c3cc(C(C)C)nn3c2=O)C1=O [Example 39] | 7550 | 308 | 25 | 14 | 29
CC(C)N1Cc2c(n(CC(=O)Nc3ccc(F)cn3)c3cc(C(F)(F)F)nn3c2=O)C1=O [Example 31] | > 32000 | >116 | 277 | 130 | 120
Cc1ccc(NC(=O)Cn2c3c(c(=O)n4nc(C(F)(F)F)cc24)CN(C(C)C)C3=O)nc1 [Example 30] | > 21500 | >55 | 393 | 344 | 170
COCC(C)N1Cc2c(n(CC(=O)Nc3ccc(F)cn3)c3cc(C(C)(C)C)nn3c2=O)C1=O (stereo not shown) [Example 25] | 7150 | 624 | 11 | 10 | 23
CC[C@H](C)N1Cc2c(n(CC(=O)Nc3ccc(F)cn3)c3cc(C)nn3c2=O)C1=O [Example 53] | > 22000 | >110 | 200 | 133 | 195
CC(C)N1Cc2c(n(CC(=O)Nc3ccccn3)c3cc(C(C)(C)C)nn3c2=O)C1=O [Example 2] | > 22000 | >119 | 185 | 219 | 135
CN(C)CCN1Cc2c(n(CC(=O)Nc3ccc(F)cn3)c3cc(C(C)(C)C)nn3c2=O)C1=O [Example 139, 2-{2-tert-butyl-6-[2-(dimethylamino)ethyl]-5,8-dioxo-5,6,7,8-tetrahydro-4H-pyrazolo[1,5-a]pyrrolo[3,4-d]pyrimidin-4-yl}-N-(5-fluoropyridin-2-yl)acetamide] | > 32000 | >80 | 400 | 237 | 420
CC[C@@H](C)N1Cc2c(n(CC(=O)Nc3ccc(Cl)cn3)c3cc(C(F)(F)F)nn3c2=O)C1=O [Example 15] | 4650 | 88 | 53 | 21 | 49
CC(C)(C)c1cc2n(CC(=O)Nc3ccc(F)cn3)c3c(c(=O)n2n1)CN(CCOCc1ccccc1)C3=O [Example 34, 2-{6-[2-(Benzyloxy)ethyl]-2-tert-butyl-5,8-dioxo-5,6,7,8-tetrahydro-4H-pyrazolo[1,5-a]pyrrolo[3,4-d]pyrimidin-4-yl}-N-(5-fluoropyridin-2-yl)acetamide] |  |  |  | 4 | 
CC[C@@H](C)N1Cc2c(n(CC(=O)Nc3ccc(C)cn3)c3cc(C(F)(F)F)nn3c2=O)C1=O [Example 16] | > 100000 | >6 | > 16600 | 100 | 320
CC(C)(C)c1cc2n(CC(=O)Nc3ccc(F)cn3)c3c(c(=O)n2n1)CN(CCN1CCOCC1)C3=O [Example 138, 2-{2-tert-butyl-6-[2-(morpholin-4-yl)ethyl]-5,8-dioxo-5,6,7,8-tetrahydro-4H-pyrazolo[1,5-a]pyrrolo[3,4-d]pyrimidin-4-yl}-N-(5-fluoropyridin-2-yl)acetamide] | 9150 | 107 | 86 | 56 | 32
Cc1ccc(NC(=O)Cn2c3c(c(=O)n4nc(C(C)(C)C)cc24)CN(C2CCC2)C3=O)nc1 [Example 19] | 8050 | 11 | 740 | 379 | 430
C[C@H](O)CN1Cc2c(n(CC(=O)Nc3ccc(F)cn3)c3cc(C(C)(C)C)nn3c2=O)C1=O [Example 54] | > 32000 | >122 | 263 | 215 | 155
CC(C)(C)c1cc2n(CC(=O)Nc3ccc(Cl)cn3)c3c(c(=O)n2n1)CN(C1COC1)C3=O [Example 48] | 8100 | 31 | 263 | 182 | 555
CC(C)[C@H](C)N1Cc2c(n(CC(=O)Nc3ccc(F)cn3)c3cc(C(C)(C)C)nn3c2=O)C1=O [Example 10] | > 32000 | >101 | 317 | 24 | 38
CC[C@H](C)N1Cc2c(n(CC(=O)Nc3ccc(F)cn3)c3cc(C(F)(F)F)nn3c2=O)C1=O [Example 20] | > 22000 | >41 | 537 | 312 | 375
CC(C)(C)c1cc2n(CC(=O)Nc3ccc(F)cn3)c3c(c(=O)n2n1)CN(CCO)C3=O [Example 135, 2-[2-tert-butyl-6-(2-hydroxyethyl)-5,8-dioxo-5,6,7,8-tetrahydro-4H-pyrazolo[1,5-a]pyrrolo[3,4-d]pyrimidin-4-yl]-N-(5-fluoropyridin-2-yl)acetamide] | 6850 | 58 | 119 | 40 | 59
COCCN1Cc2c(n(CC(=O)Nc3ccc(F)cn3)c3cc(C(C)(C)C)nn3c2=O)C1=O [Example 49] | 3900 | 119 | 33 | 23 | 62
CC(C)(C)c1cc2n(CC(=O)Nc3ccc(F)cn3)c3c(c(=O)n2n1)CN(C1COC1)C3=O [Example 27] | > 21000 | >102 | 205 | 95 | 118
COC[C@H](C)N1Cc2c(n(CC(=O)Nc3ccc(F)cn3)c3cc(C)nn3c2=O)C1=O [Example 41] | > 32000 | >393 | 82 | 55 | 51
Cc1ccc(NC(=O)Cn2c3c(c(=O)n4nc(C(C)(C)C)cc24)CN(C2COC2)C3=O)nc1 [Example 47] |  |  |  | 1220 | 1100
COCC(C)N1Cc2c(n(CC(=O)Nc3ccc(F)cn3)c3cc(CO)nn3c2=O)C1=O (racemic) [Example 141, N-(5-fluoropyridin-2-yl)-2-{2-(hydroxymethyl)-6-[(±)-1-methoxypropan-2-yl]-5,8-dioxo-5,6,7,8-tetrahydro-4H-pyrazolo[1,5-a]pyrrolo[3,4-d]pyrimidin-4-yl}acetamide] |  |  |  | 125 | 
Cc1cc2n(CC(=O)Nc3ccc(Cl)cn3)c3c(c(=O)n2n1)CN(C(C)C)C3=O [Example 42] |  |  |  | 35 | 
